Data published in ChEMBL document CHEMBL1142326, “2-Amino-N-pyrimidin-4-ylacetamides as A2A receptor antagonists: 1. Structure-activity relationships and optimization of heterocyclic substituents” (J Med Chem, 2008).
pIC50, pKi: −log10 of the molar value.

How the values were obtained:
Adenosine receptor A1 = molecular target: T1, Adenosine receptor A1 (Homo sapiens, UniProt P30542); test: Displacement of [3H]DPCPX from human adenosine A1 receptor expressed in HEK293 cells; assay type: cell-based
T1 sequence (P30542 whole entry): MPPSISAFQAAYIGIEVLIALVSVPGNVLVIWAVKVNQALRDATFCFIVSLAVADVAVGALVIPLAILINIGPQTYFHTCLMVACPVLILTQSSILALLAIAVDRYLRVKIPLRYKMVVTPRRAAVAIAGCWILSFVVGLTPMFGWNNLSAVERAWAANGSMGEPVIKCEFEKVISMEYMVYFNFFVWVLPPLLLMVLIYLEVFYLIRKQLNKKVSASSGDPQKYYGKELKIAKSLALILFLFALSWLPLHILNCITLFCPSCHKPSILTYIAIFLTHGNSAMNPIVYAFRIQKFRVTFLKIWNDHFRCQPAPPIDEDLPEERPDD

Adenosine receptor A2a [1] = molecular target: T2, Adenosine receptor A2a (Homo sapiens, UniProt P29274); test: Displacement of [3H]ZM241385 from human adenosine A2A receptor expressed in HEK293 cells; assay type: cell-based
Cytochrome P450 3A4 = Cytochrome P450 3A4 (Homo sapiens, UniProt P08684); test: Inhibition of CYP3A4; assay type: ADME
Adenosine receptor A2a [2] = molecular target: T2, Adenosine receptor A2a; test: Antagonist activity at human adenosine A2A receptor by cAMP assay; assay type: functional

T2 sequence (P29274 whole entry): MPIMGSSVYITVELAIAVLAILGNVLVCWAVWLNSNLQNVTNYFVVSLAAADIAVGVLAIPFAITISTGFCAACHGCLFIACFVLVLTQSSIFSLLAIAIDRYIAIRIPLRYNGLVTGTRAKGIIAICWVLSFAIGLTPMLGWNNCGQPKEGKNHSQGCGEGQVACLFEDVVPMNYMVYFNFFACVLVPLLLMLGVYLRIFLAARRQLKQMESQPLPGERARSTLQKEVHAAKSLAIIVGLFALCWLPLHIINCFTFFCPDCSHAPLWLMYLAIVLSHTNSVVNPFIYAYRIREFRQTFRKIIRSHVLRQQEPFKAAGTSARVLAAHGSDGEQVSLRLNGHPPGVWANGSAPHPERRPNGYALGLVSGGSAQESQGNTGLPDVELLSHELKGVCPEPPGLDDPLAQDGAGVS
Cytochrome P450 3A4, sequence (P08684 whole entry): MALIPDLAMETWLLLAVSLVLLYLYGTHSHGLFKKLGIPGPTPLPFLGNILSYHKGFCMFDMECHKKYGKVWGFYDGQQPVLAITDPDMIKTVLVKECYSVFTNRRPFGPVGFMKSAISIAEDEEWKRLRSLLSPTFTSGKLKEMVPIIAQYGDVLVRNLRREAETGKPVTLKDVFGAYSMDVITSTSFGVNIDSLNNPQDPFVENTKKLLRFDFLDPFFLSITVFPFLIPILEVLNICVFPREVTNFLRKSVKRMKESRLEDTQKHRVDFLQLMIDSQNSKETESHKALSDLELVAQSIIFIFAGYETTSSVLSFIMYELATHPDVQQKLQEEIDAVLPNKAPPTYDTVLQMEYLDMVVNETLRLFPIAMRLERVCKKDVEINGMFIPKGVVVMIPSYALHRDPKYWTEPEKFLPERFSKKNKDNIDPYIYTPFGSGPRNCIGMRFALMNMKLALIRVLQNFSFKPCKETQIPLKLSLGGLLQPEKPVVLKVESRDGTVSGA

| Compound | pKi (Adenosine receptor A1) | pKi (Adenosine receptor A2a [1]) | pIC50 (Adenosine receptor A2a [2]) | pIC50 (Cytochrome P450 3A4) |
| --- | --- | --- | --- | --- |
| CN1CCN(CC(=O)Nc2cc(-n3cccn3)nc(-n3cccn3)n2)CC1 | 5.38 | 6.88 |  |  |
| Cc1cc(C)n(-c2nc(NC(=O)CN3CCN(C)CC3)cc(-c3nccs3)n2)n1 | 5.77 | 7.57 |  |  |
| Cc1ccc(-c2nc(NC(=O)CN3CCN(C)CC3)cc(-n3cccn3)n2)o1 | 6.07 | 6.87 |  |  |
| CN1CCN(CC(=O)Nc2cc(-n3cccn3)nc(-c3ccccn3)n2)CC1 | 6.03 | 7.27 |  |  |
| CN1CCN(CC(=O)Nc2cc(-c3ccccn3)nc(-c3cccs3)n2)CC1 | 6.41 | 7.62 |  |  |
| Cc1cc(C)n(-c2cc(NC(=O)CN3CCN(C)CC3)nc(-c3ccccn3)n2)n1 | 5.36 | 7.59 |  |  |
| CN1CCN(CC(=O)Nc2cc(-n3cccn3)nc(-c3nccs3)n2)CC1 | 6.07 | 7.77 |  |  |
| Cc1cc(C)n(-c2cc(NC(=O)CN3CCN(C)CC3)nc(-c3nccs3)n2)n1 | 5.70 | 8.05 |  | 4.89 |

Now from value to compound, other results behind:

| pKi (Adenosine receptor A1) | pKi (Adenosine receptor A2a [1]) | pIC50 (Adenosine receptor A2a [2]) | Compound | pIC50 (Cytochrome P450 3A4) |
| --- | --- | --- | --- | --- |
| 6.07 | 7.92 |  | Cc1cc(C)n(-c2cc(NC(=O)CN3CCN(C)CC3)nc(-c3ccc(C)o3)n2)n1 |  |
| 6.14 | 7.29 |  | Cc1ccc(-c2nc(NC(=O)CN3CCN(C)CC3)cc(-c3nccs3)n2)o1 |  |
| 6.41 | 7.85 |  | Cc1ccc(-c2nc(NC(=O)CN3CCN(C)CC3)cc(-n3nccc3C)n2)o1 |  |
| < 5.00 | 6.00 |  | Cc1cc(C)n(-c2nc(NC(=O)CN3CCN(C)CC3)cc(-c3cnco3)n2)n1 |  |
| < 5.00 | 6.72 |  | Cc1cc(C)n(-c2nc(NC(=O)CN3CCN(C)CC3)cc(-c3ocnc3C)n2)n1 |  |
|  |  | 6.99 | CN1CCN(CC(=O)Nc2cc(-c3nccs3)nc(-c3ccco3)n2)CC1 |  |
